# Experimental data as given in publication PMC12957798, “Adaptation of plateau frog peptide: From antimicrobial to angiogenic and proliferative functions” (Journal of Advanced Research, 2025).
# Test system: TGF-α mRNA
# Assay: qPCR TGF-α mRNA in HaCaT
# Format: cell-based, Human
# Details: SC17-2 20 μg/mL, n = 6
# Method: HaCaT cells were treated as above, washed twice with PBS and lysed using Trizol for 5 min, after which 200 μL of chloroform was added and shaken vigorously for 30 s. The cells were centrifuged for 15 min to separate the upper and lower layers (12,500 g, 4 °C). The supernatant was vortexed with an equal amount of isopropanol and left to stand for 10 min, and then centrifuged again under the same conditions to retain only the white precipitate. 500 μL of 75 % ethanol was added and centrifuged (12000 rpm, 4 °C, 10 min) and the operation was repeated twice. Afterwards, DEPC was used for dissolution and the concentration was determined by nanodrop. One-step reverse transcription to DNA was performed using 5 × MIX, after which primers and 2 × MIX were added and placed. qPCR was performed (LightCycler96, F. Hoffmann-La Roche, Swiss).
sequence,measurement,value
"SFMPLSIPIMCKMLSKC [SC17-2, peptide of the pleskein family from the skin transcriptome of the frog Nanorana parkeri, made by solid-phase synthesis]",mRNA expression of TGF-α,significantly elevated
